In one test the target is BRD4-BD12 (1-477) (Homo sapiens (Human), UniProt O60885). Put plainly: Alphascreen binding assay BRD4-BD12. As to conditions: BRD4(1 2) H4; read-out: Biochemical activity (IC50 μM) BRD4(1 2) H4. The protocol:
Binding of compounds of formula (I) with bromodomain 2, 3 4 was assessed using Alphascreen binding assay. The inhibition of the interaction between bromodomain and its acetylated target protein (Filippakopoulos P et al. 2012) was measured quantitatively using recombinant BRD proteins, an acetylated Histone 4 peptide and AlphaScreen™ technology. In absence of inhibition the BRD protein bound to AlphaScreen™ nickel chelate acceptor beads can interact with the acetylated Histone 4 peptide which is immobilized by the AlphaScreen™ Streptavidin coated beads. This interaction brings donor and acceptor beads in proximity. The close proximity allows the singlet oxygen produced by laser excitation of the donor beads to reach the acceptor beads and generate a luminescence signal.
Recombinant human bromodomains containing the N-terminal bromodomain (BRD2-BD1 (71-194), BRD3-BD1 (24-144) and BRD4-BD1 (44-164)) or dual bromodomains (BRD4-BD12 (1-477), BRD4-BD12 (1-472)) were prepared and purified as described in protein expression and purification session. The peptide is human Histone H41-21K5AcK8AcK12AcK16Ac-Biotin (Anaspec CA, USA).
Protocol for BRD2, BRD3 and BRD4 assay: All components are prepared in buffer composed of 50 mM HEPES pH 7.5, 100 mM NaCl, 0.01% bovine serum albumin (“BSA”), 0.01% Triton X-100, 2 mM dithiothreitol (“DTT”). 7 μL of Bromodomain protein and 7 μL of peptide are added to wells containing 1 μL of various concentrations of test compounds of formula (I) or DMSO vehicle in an Alphaplate (PerkinElmer GA, USA) and incubated for 1 hour at room temperature. 4 μL donor and acceptor bead mixture is then added with final concentrations of 7.5 μg/ml. 30 minutes after bead addition, Alpha signal is read on the Envision spectrometer (λEx 680 nm, λEm 520-620 nm). Final concentrations of bromodomain proteins and peptide are as shown below.
All data was normalized to the mean of 16 high and 16 low control wells on each plate. A four parameter curve fit of the following formula was then applied: Y=a+(b−a)/(1+(x/c)^d) Where ‘a’ is the minimum, ‘b’ is the maximum, ‘c’ is the pIC50 and ‘d’ is the Hill slope. Protein Expression and Purification
Recombinant human bromodomains containing the N-terminal bromodomain (BRD2-BD1 (71-194), BRD3-BD1 (24-144) and BRD4-BD1 (44-164)) or dual bromodomains (BRD4-BD12 (1-477), BRD4-BD12 (1-472)) were expressed in E. coli cells (in a modified pET vector) with an N-terminal six-His tag and purified using a combination of both IMAC (Ni-affinity) and size exclusion chromatography steps.
Recombinant BRD proteins were expressed using the E. coli strain BL21-CodonPlus (DE3) (Agilent Technologies CA, USA). Cells were grown in Terrific Broth (TB) media to an OD600 of 1.2 at 37° C. at which temperature was reduced to 25° C., protein was induced with 1.0 mM ispropyl-β-D-thiogalactopyranoside (“IPTG”) for 12-18 hours and harvested by centrifugation at 8000×g for 20 minutes. Cells were re-suspended in 0.1M K2PO4 pH 8.0, 250 mM NaCl, 10% Glycerol, 0.75% NP-40, 25 mM Imidazole, 5 mM beta-mercaptoethanol (“BME”) with 0.2 mg/ml Lysosyme, 2.0 mM phenylmethanesulfonyl fluoride (“PMSF”), 25 μg/ml DNAse I, incubated on ice for 30 minutes and lyzed with a cell disruptor (MicroFluidics MA, USA). The lysate was clarified by centrifugation at 20,000×g for 2 hours. The protein was captured with Ni-NTA resin (Life Technologies, USA). Contaminating proteins were washed off with 25 mM Tris-HCl pH 8.3, 250 mM NaCl, 12% Glycerol and 50 mM Imidazole. Following 3× wash steps, protein was eluted step wise using a 50 mM HEPES pH 7.5, 500 mM NaCl and 400 mM Imidazole. The protein was further purified using Gel Filtration column 26/600 Superdex 200 (GE Biosciences NJ, USA) in 50 mM HEPES pH 7.5, 250 mM NaCl. The protein was aliquoted and flash-frozen in liquid Nitrogen.
In general terms: Bead proximity is the source of the signal in Alpha formats.

The test system of a further test is MV-4-11 cells. Put plainly: Oncology cell growth assay MV-4-11 (CellTiter Glo). The class given is cell-based. As to conditions: Homo sapiens, MV4-11, 72 h, read-out: Cell activity (IC50 μM) MV-4-11 3d-Growth. The procedure, abridged: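 Growth read by CellTiter Glo luminescence after 72 h compound treatment of MLL-AF4-bearing MV-4-11 cells (3000/well). Titration: 8 points, 1:3 steps, maximum 10 μM, 0.2% DMSO final. Data normalized to DMSO wells, four-parameter fit gives pIC50.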
On the technique in general: ATP-based viability assays read luminescence as a measure of living cells.

SMILES strings stand for the structures. Like-named read-outs stand apart in the source and are kept apart here.

By IC50 is commonly meant the point on the concentration scale where inhibition reaches its midpoint. Regarding `Cc1noc(C)c1-c1cnc2c(I)cn(Cc3ccccc3F)c2c1` [P-0924, 4-[1-[(2-fluorophenyl)methyl]-3-iodo-pyrrolo[3,2-b]pyridin-6-yl]-3,5-dimethyl-isoxazole], the IC50 at BRD4-BD12 (1-477) was less than 1 µM; in the test with MV-4-11 cells (MV-4-11, 3d growth), less than 1 µM.

In the case of `COC(=O)c1ccc(-c2cn(Cc3ccccc3F)c3cc(-c4c(C)noc4C)cnc23)cc1` [P-0925, methyl 4-[6-(3,5-dimethylisoxazol-4-yl)-1-[(2-fluorophenyl)methyl]pyrrolo[3,2-b]pyridin-3-yl]benzoate], the IC50 at BRD4-BD12 (1-477) is less than 1 µM; in the test with MV-4-11 cells (MV-4-11, 3d growth) it was less than 1 µM.

In the case of `Cc1noc(C)c1-c1cnc2c(-c3ccc(C(=O)O)cc3)cn(Cc3ccccc3F)c2c1` [P-0926, 4-[6-(3,5-dimethylisoxazol-4-yl)-1-[(2-fluorophenyl)methyl]pyrrolo[3,2-b]pyridin-3-yl]benzoic acid], the IC50 on BRD4-BD12 (1-477) was less than 1 µM; with MV-4-11 cells (MV-4-11, 3d growth) it was less than 1 µM.

On to `CCOP(=O)(OCC)c1ccc(-c2cn(C(C)c3ccccc3)c3cc(-c4c(C)noc4C)cnc23)cc1` (stereo not drawn) [P-0927, 4-[3-(4-diethoxyphosphorylphenyl)-1-(1-phenylethyl)pyrrolo[3,2-b]pyridin-6-yl]-3,5-dimethyl-isoxazole], for which the IC50 on BRD4-BD12 (1-477) and in the test with MV-4-11 cells was less than 1 µM each time.

`Cc1noc(C)c1-c1cnc2c(-c3ccc(P(=O)(O)O)cc3)cn(C(C)c3ccccc3)c2c1` (stereo not drawn) [P-0928, [4-[6-(3,5-dimethylisoxazol-4-yl)-1-(1-phenylethyl)pyrrolo[3,2-b]pyridin-3-yl]phenyl]phosphonic acid]: the IC50 at BRD4-BD12 (1-477) was less than 1 µM; with MV-4-11 cells (MV-4-11, 3d growth), 1 to 10 µM.

Regarding `COc1cccc(Cn2cc(I)c3ncc(-c4c(C)noc4C)cc32)n1` [P-0929, 4-[3-iodo-1-[(6-methoxy-2-pyridyl)methyl]pyrrolo[3,2-b]pyridin-6-yl]-3,5-dimethyl-isoxazole], the IC50 was less than 1 µM at BRD4-BD12 (1-477) and less than 1 µM in the test on MV-4-11 cells (MV-4-11, 3d growth).

For the compound `COC(=O)c1ccc(-c2cn(Cc3cccc(OC)n3)c3cc(-c4c(C)noc4C)cnc23)cc1` [P-0930, methyl 4-[6-(3,5-dimethylisoxazol-4-yl)-1-[(6-methoxy-2-pyridyl)methyl]pyrrolo[3,2-b]pyridin-3-yl]benzoate], the IC50 is less than 1 µM on BRD4-BD12 (1-477) and 1 to 10 µM in the test on MV-4-11 cells (MV-4-11, 3d growth).

On to `COc1cccc(Cn2cc(-c3ccc(C(=O)O)cc3)c3ncc(-c4c(C)noc4C)cc32)n1` [P-0931, 4-[6-(3,5-dimethylisoxazol-4-yl)-1-[(6-methoxy-2-pyridyl)methyl]pyrrolo[3,2-b]pyridin-3-yl]benzoic acid], for which the IC50 at BRD4-BD12 (1-477) is less than 1 µM; in the test on MV-4-11 cells (MV-4-11, 3d growth) it was less than 1 µM.

On to `COc1ccccc1Cn1cc(I)c2ncc(-c3c(C)noc3C)cc21` [P-0932, 4-[3-iodo-1-[(2-methoxyphenyl)methyl]pyrrolo[3,2-b]pyridin-6-yl]-3,5-dimethyl-isoxazole], for which the IC50 on BRD4-BD12 (1-477) was less than 1 µM; in the test with MV-4-11 cells (MV-4-11, 3d growth), less than 1 µM.

As to `COC(=O)c1ccc(-c2cn(Cc3ccccc3OC)c3cc(-c4c(C)noc4C)cnc23)cc1` [P-0933, methyl 4-[6-(3,5-dimethylisoxazol-4-yl)-1-[(2-methoxyphenyl)methyl]pyrrolo[3,2-b]pyridin-3-yl]benzoate], the IC50 on BRD4-BD12 (1-477) was less than 1 µM; in the test on MV-4-11 cells (MV-4-11, 3d growth), 1 to 10 µM.

For the compound `COc1ccccc1Cn1cc(-c2ccc(C(=O)O)cc2)c2ncc(-c3c(C)noc3C)cc21` [P-0934, 4-[6-(3,5-dimethylisoxazol-4-yl)-1-[(2-methoxyphenyl)methyl]pyrrolo[3,2-b]pyridin-3-yl]benzoic acid], the IC50 on BRD4-BD12 (1-477) was less than 1 µM; with MV-4-11 cells (MV-4-11, 3d growth), less than 1 µM.

Regarding `Cc1noc(C)c1-c1cnc2c(I)cn(Cc3ccncc3)c2c1` [P-0935, 4-[3-iodo-1-(4-pyridylmethyl)pyrrolo[3,2-b]pyridin-6-yl]-3,5-dimethyl-isoxazole], the IC50 was less than 1 µM at BRD4-BD12 (1-477) and less than 1 µM in the test on MV-4-11 cells (MV-4-11, 3d growth).

Consider `COC(=O)c1ccc(-c2cn(Cc3ccncc3)c3cc(-c4c(C)noc4C)cnc23)cc1` [P-0936, methyl 4-[6-(3,5-dimethylisoxazol-4-yl)-1-(4-pyridylmethyl)pyrrolo[3,2-b]pyridin-3-yl]benzoate], for which the IC50 at BRD4-BD12 (1-477) was less than 1 µM; in the test with MV-4-11 cells (MV-4-11, 3d growth) it was less than 1 µM.

With `Cc1noc(C)c1-c1cnc2c(-c3ccc(C(=O)O)cc3)cn(Cc3ccncc3)c2c1` [P-0937, 4-[6-(3,5-dimethylisoxazol-4-yl)-1-(4-pyridylmethyl)pyrrolo[3,2-b]pyridin-3-yl]benzoic acid], the IC50 was less than 1 µM at BRD4-BD12 (1-477) and less than 1 µM in the test on MV-4-11 cells (MV-4-11, 3d growth).

As for `COc1cc(-c2cn([C@@H](C)c3ccccn3)c3cc(-c4c(C)noc4C)cnc23)ccc1C(=O)O` [P-0938, 4-[6-(3,5-dimethylisoxazol-4-yl)-1-[(1S)-1-(2-pyridyl)ethyl]pyrrolo[3,2-b]pyridin-3-yl]-2-methoxy-benzoic acid], the IC50 is less than 1 µM on BRD4-BD12 (1-477) and less than 1 µM in the test on MV-4-11 cells (MV-4-11, 3d growth).

Take `COC(=O)c1ccc(-c2cn(Cc3cccc(C)n3)c3cc(-c4c(C)noc4C)cnc23)cc1OC` [P-0939, methyl 4-[6-(3,5-dimethylisoxazol-4-yl)-1-[(6-methyl-2-pyridyl)methyl]pyrrolo[3,2-b]pyridin-3-yl]-2-methoxy-benzoate]: the IC50 on BRD4-BD12 (1-477) was less than 1 µM; in the test on MV-4-11 cells (MV-4-11, 3d growth), less than 1 µM.

Turning to `Cc1noc(C)c1-c1cnc2c(C#N)cn(C(c3ccccc3)c3ccccn3)c2c1` (stereo not drawn) [P-0940, 6-(3,5-dimethylisoxazol-4-yl)-1-[phenyl(2-pyridyl)methyl]pyrrolo[3,2-b]pyridine-3-carbonitrile], the IC50 is less than 1 µM on BRD4-BD12 (1-477) and less than 1 µM with MV-4-11 cells (MV-4-11, 3d growth).

For `COc1cc(-c2cn(Cc3cccc(C)n3)c3cc(-c4c(C)noc4C)cnc23)ccc1C(=O)O` [P-0941, 4-[6-(3,5-dimethylisoxazol-4-yl)-1-[(6-methyl-2-pyridyl)methyl]pyrrolo[3,2-b]pyridin-3-yl]-2-methoxy-benzoic acid], the half-maximal inhibitory concentration (IC50) is less than 1 µM on BRD4-BD12 (1-477) and less than 1 µM with MV-4-11 cells (MV-4-11, 3d growth).

On to `COC(=O)C1(c2ccc(-c3cn([C@@H](C)c4ccccn4)c4cc(-c5c(C)noc5C)cnc34)cc2)CC1` [P-0942, methyl 1-[4-[6-(3,5-dimethylisoxazol-4-yl)-1-[(1S)-1-(2-pyridyl)ethyl]pyrrolo[3,2-b]pyridin-3-yl]phenyl]cyclopropanecarboxylate], for which the IC50 at BRD4-BD12 (1-477) is less than 1 µM; in the test on MV-4-11 cells (MV-4-11, 3d growth) it was less than 1 µM.

Regarding `Cc1noc(C)c1-c1cnc2c(-c3ccc(C4(C(=O)O)CC4)cc3)cn(CC3(C)CCOCC3)c2c1` [P-0943, 1-[4-[6-(3,5-dimethylisoxazol-4-yl)-1-[(4-methyltetrahydropyran-4-yl)methyl]pyrrolo[3,2-b]pyridin-3-yl]phenyl]cyclopropanecarboxylic acid], the IC50 on BRD4-BD12 (1-477) was less than 1 µM; with MV-4-11 cells (MV-4-11, 3d growth), 1 to 10 µM.

Regarding `Cc1noc(C)c1-c1cnc2c(-c3ccc(C#N)nc3)cn(CC3(C)CCOCC3)c2c1` [P-0944, 5-[6-(3,5-dimethylisoxazol-4-yl)-1-[(4-methyltetrahydropyran-4-yl)methyl]pyrrolo[3,2-b]pyridin-3-yl]pyridine-2-carbonitrile], the IC50 was less than 1 µM at BRD4-BD12 (1-477) and less than 1 µM in the test on MV-4-11 cells (MV-4-11, 3d growth).

The values are drawn from patent US10519177B2, “Heterocyclic compounds and uses thereof” (Plexxikon Inc., priority 2013, dated 2019).
